pIC50: −log10 of the molar value. Structures can show the parent of a compound that is named as a salt. Where two headings read alike, the source gives them in different places.

Series [1] has as its target T1, N-type calcium channels in IMR-32 cells (Homo sapiens, UniProt Q00975).
T1 construct: host or cells: IMR-32 cells differentiated with dibutyryl cAMP and bromodeoxyuridine
Put plainly: N-type Ca2+ channel blocking potency in IMR-32 cells using Indo-1. It is filed as cell-based. The conditions noted are these: for pIC50: IMR-32 cells; for inhibition at 1 µM / inhibition at 10 µM: IMR-32, IMR-32 cells; for inhibition at 1 µM: read-out: IMR32 % blockage at 1 μM; for inhibition at 10 µM: read-out: IMR32 % blockage at 10 μM. In outline:
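Differentiated IMR-32 cells loaded with Indo-1 AM were preincubated with compound and 5 μM nitrendipine (L-type block) for 10 min at 30° C in HEPES/Tris pH 7.4 HBSS with 0.5% BSA. Cells were depolarized with KCl/CaCl2, and the 400/490 nm emission ratio rise over basal was measured. IC50 came from a four-parameter logistic fit.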

The subject of series [2] is sound-induced tonic convulsions in DBA/2 mice. Put plainly: Audiogenic seizure model in DBA/2 mice. The series is classed as in vivo. The conditions noted are these: Mus musculus, protected/tested, read-out: Number of Mice Protected From Tonic Convulsions (converted); for responders at 30 mg/kg: 30 mg/Kg IV; for responders at 10 mg/kg: 10 mg/Kg IV. The procedure: Audiogenic Seizure Model in DBA/2 Mice
A compound of the present invention was dissolved in water using 10% (weight/volume) Emulphor (GAF Corp., Wayne, N.J.) surfactant. Substances were administered by intravenous injection into the retro-orbital venous sinus of male mice (3-4 weeks old, Jackson Laboratories, Bar Harbour, Me.). All testing was preformed 15 minutes or 45 minutes after drug injection. Immediately before anticonvulsant testing, mice were placed upon a wire mesh, 4 inches square suspended from a steel rod. The square was slowly inverted through 180 degrees and mice observed for 30 seconds. Any mouse falling from the wire mesh was scored as ataxic.
Mice were placed into an enclosed acrylic plastic chamber (21 cm height, approximately 30 cm diameter) with a high-frequency speaker (4 cm diameter) in the center of the top lid. An audio signal generator (Protek model B-810) was used to produce a continuous sinusoidal tone that Was swept linearly in frequency between 8 kHz and 16 kHz once each 10 msec. The average sound pressure level (SPL) during stimulation was approximately 100 dB at the floor of the chamber. Mice were placed within the chamber and allowed to acclimatize for 1 minute. DBA/2 mice in the vehicle-treated group responded to the sound stimulus (applied until tonic extension occurred, or for a maximum of 60 sec) with a characteristic seizure sequence consisting of wild running followed by clonic seizures, and later by tonic extension, and finally by respiratory arrest and death in 80% or more of the mice. In vehicle-treated mice, the entire sequence of seizures to respiratory arrest lasts approximately 15-20 seconds.
The incidence of all the seizure phases in the drug-treated and vehicle-treated mice was recorded, and the occurrence of tonic seizures were used for calculating anticonvulsant ED50 values by probit analysis. Mice were used only once for testing at each time and dose point.

Series [3] has as its target T2, N-type Ca2+ channels in cultured superior cervical ganglion (SCG) neurons (Rattus norvegicus, UniProt Q02294).
T2 construct: from tissue
Put plainly: Calcium current in superior cervical ganglion neurons (whole-cell voltage clamp). The series is classed as cell-based. The conditions noted are these: for inhibition at 1 µM: read-out: SCG Ca, % blockage at 1 μM; for inhibition at 10 µM: read-out: SCG Ca, % blockage at 10 μM. The procedure:
(§1) Electrophysiological techniques were used to measure the effects of experimental compounds on voltage-gated Ca^2+, […] , and K^+ channels. […] Sodium and potassium channel currents were measured from acutely dissociated SCG neurons.
(§2) Dissociation of the neurons from the ganglia was accomplished using a 30 to 45 minute treatment in 0.25% trypsin, similar to methods outlined in Higgins, et al. (see Higgins D. et al. “Tissue culture of mammalian autonomic neurons.” In Banker G. and Goslin K. (Eds), Culturing Nerve Cells, Cambridge, Mass., MIT Press [1991]).
(§3) Ca^2+, Na^+, and K^+ channel currents in SCG neurons were measured using conventional single electrode whole-cell voltage-clamp techniques, outlined in Hamill et al., (see Hamill O. P. et al. “Improved patch-clamp techniques for high resolution current recordings from cells and cell-free membrane patches.”Pflugers Arch., 1981;391:85-100). For Ca^2+ channel experiments, the external bathing solution contained tetraethylammonium chloride (100 mM), choline chloride (52 mM), NaCl (15 mM), HEPES (10 mM), glucose (5.6 mM), CaCl2 (2 mM), and MgCl2 (0.8 mM), pH 7.35 with KOH; with the internal pipette solution containing cesium methane sulfonate (140 mM), EGTA (10 mM), and HEPES (10 mM), supplemented with 5 mM Mg^2+-ATP on the day of the experiment, pH 7.4 with CsOH. For Na^+ and K^+ channel experiments, the external bathing solution contained NaCl (150 mM), KCl (5 mM), MgCl2 (1.1 mM), CaCl2 (2.6 mM), Na-HEPES (10 mM), and glucose (10 mM), pH 7.4; with the internal pipette solution containing KCl (80 mM), K-gluconate (50 mM), HEPES (10 mM), and EGTA (10 mM), pH 7.4 with KOH. Experimental compounds were diluted into the external solution and applied to the soma of cells by local perfusion from large diameter (20-50 μm) glass micropipettes or from a U-tube applicator.
After obtaining a whole-cell recording, Ca^2+ channels were elicited by stepping to test potentials between −40 and +20 mV for 120 msec from the holding potential of −90 mV to determine if the amplitude of the current and clamp control were adequate for evaluation of drug effects. Ca^2+ channel currents were evoked by stepping from a holding potentials between −65 mV and −55 mV to a test potential of +20 mV for 150 msec every 40 seconds. The amplitude of the Ca^2+ channel currents were compared before and during drug application and drug effects expressed as percent inhibition of the amplitude of control currents.

Series [4] relates to K+ channels in SCG neurons. Put plainly: Potassium current in superior cervical ganglion neurons (whole-cell voltage clamp). The series is classed as cell-based, rat. The procedure: as §1, §2, §3
(§4) For Na^+ and K^+ channel currents, following the determination of the I/V relationship for each cell in control solution, currents were evoked from a holding potential between −65 and −55 mV by stepping every 10 sec to a test potential of either 0 mV for Na^+ or +50 mV for K^+ current for a duration of 35 msec. Peak inward current was measured for Na^+ and sustained current for K^+ channel currents. […] Test compounds were applied until steady-state block was achieved. Data were expressed as percent inhibition of control amplitudes for Na^+ and K^+ channel currents.

Series [5] deals with Na+ channels in SCG neurons. Put plainly: Sodium current in superior cervical ganglion neurons (whole-cell voltage clamp). The conditions noted are these: at 10 μM. It is filed as cell-based, rat. The procedure:
as §1, §2, §3, §4

Series [6] relates to electroshock-induced tonic extensor seizures in CF-1 mice. Put plainly: Maximal electroshock testing. The series is classed as in vivo. The conditions noted are these: protected/tested. The procedure: Maximal Electroshock Testing
In this test, four representative compounds were tested for their anticonvulsant effects using the procedure described below.
Male CF-1 mice, 20 to 28 g, from Charles River Laboratories, Portage, Mich. were used in all experiments. Groups of 10 mice each were given various intravenous doses of test compound in aqueous solution with 10% Emulphan® Surfactant in a volume of 10 mL/kg of body weight. Electroshock was delivered by corneal electrodes with 60 Hz alternating current (50 mA root-mean-squared for 0.2 seconds) using a constant-current stimulator (Wahlquist Instruments, Salt Lake City, Utah). Untreated or saline-treated mice reliably had tonic extensor seizures with rearward extension of hindlimbs more than 3 seconds. These methods are similar to those published by Krall R. L.; Penry J. K.; White B. G.; and Kupferberg H. K. Antiepileptic Drug Development II. Anticonvulsant Drug Screening, Epilepsia, 1978; 19:409-428.
For orientation: Protection in the maximal electroshock model is a classic sign of anticonvulsant action.

For series [7], the target named is T3, L-type calcium channels in A10 cells (Rattus norvegicus, UniProt P22002).
T3 construct: which endogenously expresses L-type calcium channels; host or cells: A10 rat embryonic thoracic aorta smooth muscle cells
Put plainly: L-type Ca2+ channel blocking potency in A10 cells (FLIPR). It is filed as cell-based. The conditions noted are these: read-out: FLPA10 IC50. The method, boiled down:
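Rat A10 aortic smooth-muscle cells endogenously expressing L-type channels were loaded with Oregon Green BAPTA-1 and preincubated with compound for 5 min at 35 °C. Cells were then depolarized with 140 mM KCl buffer. Summed fluorescence above basal over 120 s gave % inhibition versus buffer-treated stimulated wells, with zero influx defined by 1.0×10^−6 M nitrendipine.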

The mark [8] stands for this setting: 5 μM nitrendipine present, read-out: IMR32 IC50.
Where [9] appears, read: 10 mg/Kg iv, 15 min posttreatment.
Where [10] appears, read: estimated from two data points, read-out: IMR32 IC50 (estimated IC50 values based on two data points).

T1 sequence (Q00975 whole entry): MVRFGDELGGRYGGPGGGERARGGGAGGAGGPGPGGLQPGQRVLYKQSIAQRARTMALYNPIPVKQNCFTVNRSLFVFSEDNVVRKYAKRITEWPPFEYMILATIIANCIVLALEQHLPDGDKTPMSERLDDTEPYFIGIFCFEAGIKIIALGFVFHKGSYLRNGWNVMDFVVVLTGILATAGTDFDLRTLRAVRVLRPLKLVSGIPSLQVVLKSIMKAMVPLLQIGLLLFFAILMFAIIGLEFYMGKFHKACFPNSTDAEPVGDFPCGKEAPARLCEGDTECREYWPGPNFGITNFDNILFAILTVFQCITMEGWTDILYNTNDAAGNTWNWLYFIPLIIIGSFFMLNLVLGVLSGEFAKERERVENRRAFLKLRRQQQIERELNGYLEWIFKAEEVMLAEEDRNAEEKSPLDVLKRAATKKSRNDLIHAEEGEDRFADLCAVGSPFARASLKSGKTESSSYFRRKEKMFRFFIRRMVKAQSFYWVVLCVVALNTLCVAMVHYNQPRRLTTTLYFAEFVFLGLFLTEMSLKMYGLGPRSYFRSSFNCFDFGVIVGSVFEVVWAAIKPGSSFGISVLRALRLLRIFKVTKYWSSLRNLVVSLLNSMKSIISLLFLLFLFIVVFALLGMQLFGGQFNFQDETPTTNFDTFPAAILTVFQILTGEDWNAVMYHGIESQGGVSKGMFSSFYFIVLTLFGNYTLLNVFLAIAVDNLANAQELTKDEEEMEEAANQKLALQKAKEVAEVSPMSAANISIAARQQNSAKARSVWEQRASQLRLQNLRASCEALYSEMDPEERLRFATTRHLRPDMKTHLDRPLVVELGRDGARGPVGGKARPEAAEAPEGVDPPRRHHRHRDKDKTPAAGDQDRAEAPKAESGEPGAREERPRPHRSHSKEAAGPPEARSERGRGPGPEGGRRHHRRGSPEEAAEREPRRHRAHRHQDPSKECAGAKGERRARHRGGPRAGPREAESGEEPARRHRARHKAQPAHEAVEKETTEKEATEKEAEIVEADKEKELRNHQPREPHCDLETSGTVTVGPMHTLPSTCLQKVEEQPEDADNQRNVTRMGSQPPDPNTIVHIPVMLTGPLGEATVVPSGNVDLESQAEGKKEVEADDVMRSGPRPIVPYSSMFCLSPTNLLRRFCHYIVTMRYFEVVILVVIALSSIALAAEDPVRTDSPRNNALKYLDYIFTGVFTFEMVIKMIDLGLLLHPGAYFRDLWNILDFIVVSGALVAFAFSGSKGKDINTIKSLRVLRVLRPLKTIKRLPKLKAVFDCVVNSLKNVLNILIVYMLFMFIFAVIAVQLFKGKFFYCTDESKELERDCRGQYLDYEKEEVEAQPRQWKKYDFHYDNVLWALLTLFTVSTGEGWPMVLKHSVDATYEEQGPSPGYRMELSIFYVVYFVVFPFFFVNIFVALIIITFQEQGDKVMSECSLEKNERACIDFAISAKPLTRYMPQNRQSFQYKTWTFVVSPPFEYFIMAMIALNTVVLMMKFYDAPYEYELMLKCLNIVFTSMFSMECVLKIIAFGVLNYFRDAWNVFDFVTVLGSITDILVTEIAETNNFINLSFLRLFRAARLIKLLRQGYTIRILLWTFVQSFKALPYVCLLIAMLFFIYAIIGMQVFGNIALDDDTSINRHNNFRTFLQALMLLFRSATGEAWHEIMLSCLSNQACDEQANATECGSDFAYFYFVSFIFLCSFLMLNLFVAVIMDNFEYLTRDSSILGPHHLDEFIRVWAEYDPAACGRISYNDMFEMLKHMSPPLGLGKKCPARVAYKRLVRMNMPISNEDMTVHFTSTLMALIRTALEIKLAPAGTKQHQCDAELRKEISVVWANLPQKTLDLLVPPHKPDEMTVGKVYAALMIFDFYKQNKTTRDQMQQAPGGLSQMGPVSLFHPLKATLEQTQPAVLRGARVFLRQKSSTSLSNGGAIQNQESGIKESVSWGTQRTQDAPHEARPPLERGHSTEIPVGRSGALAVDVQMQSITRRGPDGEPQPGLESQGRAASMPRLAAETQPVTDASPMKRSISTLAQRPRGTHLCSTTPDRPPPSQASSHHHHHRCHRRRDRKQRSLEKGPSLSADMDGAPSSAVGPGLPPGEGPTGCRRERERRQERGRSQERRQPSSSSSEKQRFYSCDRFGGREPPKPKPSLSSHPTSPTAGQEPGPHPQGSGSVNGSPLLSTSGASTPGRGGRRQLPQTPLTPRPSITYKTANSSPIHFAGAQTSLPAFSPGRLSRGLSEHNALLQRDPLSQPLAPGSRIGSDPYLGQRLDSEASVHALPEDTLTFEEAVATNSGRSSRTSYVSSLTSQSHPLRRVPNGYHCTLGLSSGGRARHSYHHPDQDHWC
T1 sequence (P54289 25-956 partner limits assumed): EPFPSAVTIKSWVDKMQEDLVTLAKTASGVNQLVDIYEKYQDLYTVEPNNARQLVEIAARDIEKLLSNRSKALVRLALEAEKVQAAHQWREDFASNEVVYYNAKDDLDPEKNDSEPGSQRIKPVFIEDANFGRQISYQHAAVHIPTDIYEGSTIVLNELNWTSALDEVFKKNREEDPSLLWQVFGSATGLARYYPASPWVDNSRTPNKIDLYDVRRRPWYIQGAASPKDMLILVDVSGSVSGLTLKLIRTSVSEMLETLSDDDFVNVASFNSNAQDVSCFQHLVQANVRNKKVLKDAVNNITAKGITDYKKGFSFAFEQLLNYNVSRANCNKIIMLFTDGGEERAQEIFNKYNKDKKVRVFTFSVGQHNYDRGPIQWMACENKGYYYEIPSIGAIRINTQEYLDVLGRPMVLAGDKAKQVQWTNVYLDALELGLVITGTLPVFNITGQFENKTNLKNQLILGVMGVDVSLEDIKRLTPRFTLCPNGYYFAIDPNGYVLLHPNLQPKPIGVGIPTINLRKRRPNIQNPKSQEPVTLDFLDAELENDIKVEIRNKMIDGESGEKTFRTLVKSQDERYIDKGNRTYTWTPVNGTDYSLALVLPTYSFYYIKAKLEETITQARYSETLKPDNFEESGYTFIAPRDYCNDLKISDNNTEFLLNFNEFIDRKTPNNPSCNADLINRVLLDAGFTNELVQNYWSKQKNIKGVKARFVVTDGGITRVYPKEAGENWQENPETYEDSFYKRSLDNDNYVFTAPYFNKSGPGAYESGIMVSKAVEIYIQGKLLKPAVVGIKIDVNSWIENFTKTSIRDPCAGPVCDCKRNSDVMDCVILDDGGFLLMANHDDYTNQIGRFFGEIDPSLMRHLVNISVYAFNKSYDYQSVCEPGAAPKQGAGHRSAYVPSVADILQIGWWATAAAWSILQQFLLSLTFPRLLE
T1 sequence (P54289 957-1103 partner limits assumed): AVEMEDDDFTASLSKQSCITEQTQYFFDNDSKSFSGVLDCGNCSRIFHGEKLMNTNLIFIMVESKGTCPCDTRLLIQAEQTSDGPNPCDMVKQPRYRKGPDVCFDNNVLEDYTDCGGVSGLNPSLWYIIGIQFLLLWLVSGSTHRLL
T1 sequence (Q02641 whole entry partner): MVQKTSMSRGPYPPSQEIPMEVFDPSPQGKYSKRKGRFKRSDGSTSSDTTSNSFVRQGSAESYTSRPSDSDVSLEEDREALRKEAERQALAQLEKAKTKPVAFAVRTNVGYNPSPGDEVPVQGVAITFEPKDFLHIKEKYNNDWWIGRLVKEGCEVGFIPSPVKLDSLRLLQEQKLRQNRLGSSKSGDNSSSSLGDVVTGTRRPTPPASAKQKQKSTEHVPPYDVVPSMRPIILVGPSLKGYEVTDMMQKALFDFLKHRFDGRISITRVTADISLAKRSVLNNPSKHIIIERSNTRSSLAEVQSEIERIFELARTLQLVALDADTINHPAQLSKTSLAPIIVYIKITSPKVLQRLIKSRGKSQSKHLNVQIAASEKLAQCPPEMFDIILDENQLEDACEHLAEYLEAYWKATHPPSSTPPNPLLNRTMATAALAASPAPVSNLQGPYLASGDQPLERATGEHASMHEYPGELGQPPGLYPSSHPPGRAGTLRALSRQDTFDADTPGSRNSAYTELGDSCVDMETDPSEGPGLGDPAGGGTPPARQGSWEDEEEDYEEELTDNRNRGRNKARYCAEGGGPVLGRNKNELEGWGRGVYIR

Consider `CC(C)C[C@H](NC(=O)N1CCCCCC1)C(=O)NCCCC(c1ccc(F)cc1)c1ccc(F)cc1` [Example 1, (S)-Azepane-1-carboxylic acid {1-[4,4-bis-(4-fluoro-phenyl)-butylcarbamoyl]-3-methyl-butyl}-amide], for which, in series [1] (setting [8]), the pIC50 is 6.09. The responders at 30 mg/kg in series [2] (0.25 h, 15 min posttreatment) is 60%. For the same compound, in series [3], the inhibition at 1 µM was found to be 17% and the inhibition at 10 µM was determined as 16%. Further, in series [4], the “SCG K, % blockage at 1 μM” value was 4.3% @ 1 and the “SCG K, % blockage at 10 μM” value turned out to be 3% @ 10. Besides, the “SCG Na, % blockage at 10 μM” value in series [5] came out at 14% @ 10.
Regarding `CC(C)C[C@H](NC(=O)N1CCCCCC1)C(=O)NC(c1ccccc1)c1ccccc1` [Example 3, (S)-Azepane-1-carboxylic acid [1-(benzhydryl-carbamoyl)-3-methyl-butyl]-amide], the melting point was 180 to 181 °C. For the same compound, in series [1] (setting [8]), the negative logarithm of the IC50 (pIC50) was 5.36. Further, the inhibition at 10 µM in series [3] was 33%. In addition, the “SCG K, % blockage at 10 μM” value in series [4] is listed as 48% @ 10. In addition, the “SCG Na, % blockage at 10 μM” value in series [5] came to 5% @ 10.
For `CC(C)=CCN(C)[C@@H](CC(C)C)C(=O)NCCCC(c1ccc(F)cc1)c1ccc(F)cc1` [Example 13, (S)-4-Methyl-2-[methyl-(3-methyl-but-2-enyl)-amino]-pentanoic acid [4,4-bis-(4-fluoro-phenyl)-butyl]-amide monohydrochloride], the pIC50 in series [1] (setting [8]) is 6.28. Also, in series [3], the inhibition at 1 µM was 23% and the inhibition at 10 µM worked out at 77%. In addition, in series [4], the “SCG K, % blockage at 1 μM” value came out at 10% @ 1 and the “SCG K, % blockage at 10 μM” value was determined as 48% @ 10. Also, the “SCG Na, % blockage at 10 μM” value in series [5] is reported as 95% @ 10. In series [6] (setting [9]), the “Number of Mice Protected from Tonic Convulsions” value is 3/5.
Take `CC(C)C[C@H](NC1CCCCC1)C(=O)NCCCC(c1ccc(F)cc1)c1ccc(F)cc1.Cl` [Example 15, (S)-2-Cyclohexylamino-4-methyl-pentanoic acid [4,4-bis-(4-fluoro-phenyl)-butyl]-amide monohydrochloride]: in series [1], the inhibition at 1 µM amounted to 62%. Besides, the inhibition at 10 µM in series [1] turned out to be 87%. Also, the responders at 30 mg/kg in series [2] (0.25 h, 15 min posttreatment) was 100%; in series [2] (0.75 h, 45 min posttreatment), 100%. In addition, the “Number of Mice Protected from Tonic Convulsions” value in series [6] (setting [9]) was 5/5; in series [6] (10 mg/Kg iv, 45 min posttreatment) it was 2/5; in series [6] (30 mg/Kg iv, 15 min posttreatment), 3/3; in series [6] (30 mg/Kg iv, 45 min posttreatment) it was 5/5.
Take `CC(C)C[C@H](NC1CCCCC1)C(=O)N1CCN(C(c2ccc(F)cc2)c2ccc(F)cc2)CC1` [Example 38, (S)-1-{4-[Bis-(4-fluoro-phenyl)-methyl]-piperazin-1-yl}-2-cyclohexylamino-4-methyl-pentan-1-one]: the values for the pIC50 in series [1] (setting [10]) and in series [7] were 5.92 and 6.21, respectively. Besides, the responders at 30 mg/kg in series [2] (0.25 h, 15 min posttreatment) is 80%; in series [2] (0.75 h, 45 min posttreatment), 20%.
Regarding `CC(C)C[C@@H](C(=O)N1CCN(C(c2ccc(F)cc2)c2ccc(F)cc2)CC1)N(C)C1CCCCC1` [Example 40, (S)-1-{4-[Bis-(4-fluoro-phenyl)-methyl]-piperazin-1-yl}-2-(cyclohexyl-methyl-amino)-4-methyl-pentan-1-one], the negative-log IC50 (pIC50) in series [1] (setting [10]) was 6.15; in series [7], 6.30. Moreover, the responders at 30 mg/kg in series [2] (0.25 h, 15 min posttreatment) is 0%; in series [2] (0.75 h, 45 min posttreatment) it was 0%.
For the compound `CC(C)CCN(C)[C@@H](CC(C)C)C(=O)N1CCN(C(c2ccc(F)cc2)c2ccc(F)cc2)CC1` [Example 46, 1-{4-[Bis-(4-fluoro-phenyl)-methyl]-piperazin-1-yl}-4-methyl-2-[methyl-(3-methyl-butyl)-amino]-pentan-1-one dihydrochloride], the pIC50 in series [1] (setting [10]) was 6.48; in series [7] it was 5.74. Moreover, the responders at 10 mg/kg in series [2] (0.25 h, 15 min posttreatment) is 80%; in series [2] (0.75 h, 45 min posttreatment), 20%.
On to `N[C@@H](Cc1ccccc1)C(=O)N1CCN(C(c2ccc(F)cc2)c2ccc(F)cc2)CC1` [Example 52, (S)-2-Amino-1-(4-[bis-(4-fluoro-phenyl)-methyl]-piperazin-1-yl}-3-phenyl-propan-1-one], for which, in series [1], the inhibition at 1 µM was 23% and the inhibition at 10 µM was 99%. For the same compound, the responders at 30 mg/kg in series [2] (0.25 h, 15 min posttreatment) was 100%. In addition, the responders at 30 mg/kg in series [2] (0.75 h, 45 min posttreatment) is 80%. In addition, in series [7], the negative logarithm of the IC50 (pIC50) was 6.37.

In general, pIC50 refers to the IC50 on a negative log10 scale, so that one unit is a factor of ten. Usually melting point stands for the temperature of the solid-liquid transition.

Source of the values: US6458781B1, “Substituted diarylalkyl amides as calcium channel antagonists” (priority 1998, dated 2002).
